MIC data for 4 molecules are collected here from patent publication US4698352A, “4-oxo-1,4-dihydronicotinic acid derivatives, salts thereof, and antibacterial agents containing the same” (Toyama Chemical Co., Ltd., priority 1982, dated 1987).

Holding throughout (assay): Antibacterial activity (MIC), agar dilution
Common to all, as to assay type: cell-based

The subject of one test is Kl. pneumoniae Y-4*. Conditions: Klebsiella pneumoniae, 20 h, Kl. pneumoniae Y-4, penicillinase-producing; 10^6 cells per ml; read-out: MIC. The source says: (§1) The amount of bacteria inoculated was 10^4 cells per plate (10^6 cells per ml).
(§2) * Penicillinase-producing bacteria

The next test concerns St. aureus F-137*. Conditions: Staphylococcus aureus, 20 h, St. aureus F-137, penicillinase-producing; 10^6 cells per ml; read-out: MIC.
Text: as §1, §2

A further test deals with Ps. aeruginosa GN3379*. Particulars: Pseudomonas aeruginosa, 20 h; Ps. aeruginosa GN3379, penicillinase-producing; 10^6 cells per ml; read-out: MIC.
Text: as §1, §2

A further test deals with E. coli TK-3*. Conditions: Escherichia coli, 20 h.
Text: as §1, §2

The next test concerns Pro. vulgaris GN3027. Particulars: Proteus vulgaris, GN3027, 20 h, Pro. vulgaris GN3027; 10^6 cells per ml; 37° C., 20 hours; read-out: MIC.
Text: as §1

The subject of a further test is Ent. cloacae IID977. Conditions: Enterobacter cloacae, IID977, 20 h.
Text: as §1

The test system of a further test is St. aureus FDA209P. Conditions: Staphylococcus aureus, FDA209P, 20 h, St. aureus FDA209P; 10^6 cells per ml; 37° C., 20 hours; read-out: MIC.
Text: as §1

The next test relates to Pro. morganii T-216. Particulars: Morganella morganii, 37° C.
Text: as §1

The test system of another test is Ps. aeruginosa S-68. Conditions: Pseudomonas aeruginosa.
Text: as §1

The subject of a further test is E. coli TK-111. Conditions: Escherichia coli, TK111, 20 h, E. coli TK-111; 10^6 cells per ml; 37° C., 20 hours; read-out: MIC.
Text: as §1

In a further test the test system is Ps. aeruginosa IFO3445. Particulars: Pseudomonas aeruginosa; Ps. aeruginosa IFO3445; 10^6 cells per ml; 37° C., 20 hours; read-out: MIC.
Text: as §1

Another test deals with Pro. mirabilis T-111. Conditions: Proteus mirabilis, 37° C.
Text: as §1

The subject of another test is E. coli NIHJ JC-2. Particulars: Escherichia coli, NIHJJC2, 20 h, E. coli NIHJ JC-2; 10^6 cells per ml; 37° C., 20 hours; read-out: MIC.
Text: as §1

For another test, the system named is Aci. antitratus A-6. Conditions: 20 h, Aci. antitratus A-6; 10^6 cells per ml; 37° C., 20 hours; read-out: MIC.
Text: as §1

A further test relates to Kl. pneumoniae Y-50. Particulars: Klebsiella pneumoniae, Y50, 20 h, 10^6 cells per ml, 37° C., read-out: MIC.
Text: as §1

In the next test the test system is Kl. pneumoniae Y-41. Conditions: Klebsiella pneumoniae, Y41, 10^6 cells per ml, 37° C., 20 hours, read-out: MIC.
Text: as §1

A further test deals with Pro. vulgaris GN76**. Particulars: Proteus vulgaris.
Text: as §1
(§3) ** Cephalospolinase-producing bacteria

For another test, the system named is Ps. aeruginosa GN918**. Conditions: Pseudomonas aeruginosa, Ps. aeruginosa GN918, cephalospolinase-producing, 10^6 cells per ml.
Text: as §1, §3

The test system of the next test is E. coli GN5482**. Particulars: Escherichia coli, 20 h; E. coli GN5482, cephalospolinase-producing; 10^6 cells per ml; read-out: MIC.
Text: as §1, §3

Setting [1] is: E. coli TK-3, penicillinase-producing, 10^6 cells per ml, read-out: MIC.
The mark [2] stands for this setting: Ent. cloacae IID977, 10^6 cells per ml, 37° C., 20 hours, read-out: MIC.
The mark [3] stands for this setting: T216, 10^6 cells per ml, 20 hours, read-out: MIC.
Where [4] appears, read: S68, Ps. aeruginosa S-68, 10^6 cells per ml, 37° C., 20 hours, read-out: MIC.
Setting [5] is: T111, 10^6 cells per ml, 20 hours, read-out: MIC.
The mark [6] stands for this setting: 20 h, Pro. vulgaris GN76, cephalospolinase-producing, 10^6 cells per ml, read-out: MIC.

≈ marks a conversion by molar mass, not a printed value. Like-named read-outs stand apart in the source and are kept apart here.

The MIC is the lowest concentration that inhibits growth of the organism. For `O=C(O)c1cn(-c2ccc(O)cc2)c(-c2ccc(-n3cccn3)cc2)cc1=O`, the MIC came to 0.78 µg/mL (≈ 2.09 µM) in the test on Kl. pneumoniae Y-4*; 0.39 µg/mL (≈ 1.04 µM) with St. aureus F-137*; 6.25 µg/mL (≈ 16.7 µM) in the test with Ps. aeruginosa GN3379*; 0.2 µg/mL (≈ 0.536 µM) in the test with E. coli TK-3* (setting [1]); 0.39 µg/mL (≈ 1.04 µM) in the test on Pro. vulgaris GN3027; 0.2 µg/mL (≈ 0.536 µM) in the test with Ent. cloacae IID977 (setting [2]). The MIC with St. aureus FDA209P is 0.39 µg/mL (≈ 1.04 µM); in the test on Pro. morganii T-216 (setting [3]), 1.56 µg/mL (≈ 4.18 µM); in the test on Ps. aeruginosa S-68 (setting [4]), 6.25 µg/mL (≈ 16.7 µM); in the test on E. coli TK-111, not above 0.05 µg/mL; with Ps. aeruginosa IFO3445, 6.25 µg/mL (≈ 16.7 µM); in the test on Pro. mirabilis T-111 (setting [5]) it was 3.13 µg/mL (≈ 8.38 µM). Further, the minimal inhibitory concentration (MIC) in the test with E. coli NIHJ JC-2 amounted to 0.1 µg/mL (≈ 0.268 µM); in the test on Aci. antitratus A-6 it was 0.78 µg/mL (≈ 2.09 µM); in the test on Kl. pneumoniae Y-50, 0.2 µg/mL (≈ 0.536 µM); with Kl. pneumoniae Y-41, 0.78 µg/mL (≈ 2.09 µM); in the test on Pro. vulgaris GN76** (setting [6]), 1.56 µg/mL (≈ 4.18 µM); with Ps. aeruginosa GN918** (20 h, read-out: MIC), 3.13 µg/mL (≈ 8.38 µM). Further, the minimum inhibitory concentration (MIC) in the test with E. coli GN5482** was not above 0.05 µg/mL.

For the molecule `Cc1nc(-c2ccc(-c3cc(=O)c(C(=O)O)cn3-c3ccc(O)cc3C)cc2)cs1`, the MIC in the test on Kl. pneumoniae Y-4* is 1.56 µg/mL (≈ 3.73 µM); in the test on St. aureus F-137* it was not above 0.05 µg/mL; in the test with Ps. aeruginosa GN3379*, 6.25 µg/mL (≈ 14.9 µM); in the test on E. coli TK-3* (setting [1]) it was 0.39 µg/mL (≈ 0.932 µM); in the test with Pro. vulgaris GN3027, 0.39 µg/mL (≈ 0.932 µM); in the test with Ent. cloacae IID977 (setting [2]) it was 0.39 µg/mL (≈ 0.932 µM). Moreover, the MIC was not above 0.05 µg/mL in the test on St. aureus FDA209P; 1.56 µg/mL (≈ 3.73 µM) against Pro. morganii T-216 (T216, 20 h, 10^6 cells per ml); 3.13 µg/mL (≈ 7.48 µM) in the test with Ps. aeruginosa S-68 (setting [4]); not above 0.05 µg/mL in the test with E. coli TK-111; 3.13 µg/mL (≈ 7.48 µM) in the test on Ps. aeruginosa IFO3445; 0.78 µg/mL (≈ 1.86 µM) in the test on Pro. mirabilis T-111 (setting [5]). The MIC in the test on E. coli NIHJ JC-2 was 0.1 µg/mL (≈ 0.239 µM); in the test on Aci. antitratus A-6, not above 0.05 µg/mL; with Kl. pneumoniae Y-50, 0.2 µg/mL (≈ 0.478 µM); in the test on Kl. pneumoniae Y-41 it was 1.56 µg/mL (≈ 3.73 µM); in the test on Pro. vulgaris GN76** (setting [6]), 0.39 µg/mL (≈ 0.932 µM); in the test with Ps. aeruginosa GN918** (20 h, read-out: MIC), 0.39 µg/mL (≈ 0.932 µM). For the same molecule, the MIC in the test with E. coli GN5482** was not above 0.05 µg/mL.

Turning to `CN1CCCc2cc(-c3cc(=O)c(C(=O)O)cn3-c3ccc(O)cc3)ccc21`, the MIC worked out at 6.25 µg/mL (≈ 16.6 µM) in the test on Kl. pneumoniae Y-4*; 0.2 µg/mL (≈ 0.531 µM) in the test with St. aureus F-137*; 12.5 µg/mL (≈ 33.2 µM) in the test with Ps. aeruginosa GN3379*; 1.56 µg/mL (≈ 4.14 µM) with E. coli TK-3*; 0.78 µg/mL (≈ 2.07 µM) in the test with Pro. vulgaris GN3027; 1.56 µg/mL (≈ 4.14 µM) in the test with Ent. cloacae IID977. Further, the MIC was 0.39 µg/mL (≈ 1.04 µM) in the test on St. aureus FDA209P; 3.13 µg/mL (≈ 8.32 µM) in the test with Pro. morganii T-216 (T216, 20 h, 10^6 cells per ml); 6.25 µg/mL (≈ 16.6 µM) against Ps. aeruginosa S-68 (S68, 20 h); 0.2 µg/mL (≈ 0.531 µM) with E. coli TK-111; 12.5 µg/mL (≈ 33.2 µM) in the test on Ps. aeruginosa IFO3445; 3.13 µg/mL (≈ 8.32 µM) against Pro. mirabilis T-111 (T111, 20 h, 10^6 cells per ml). In addition, the MIC in the test with E. coli NIHJ JC-2 turned out to be 0.39 µg/mL (≈ 1.04 µM); with Aci. antitratus A-6 it was 0.39 µg/mL (≈ 1.04 µM); in the test on Kl. pneumoniae Y-50 it was 1.56 µg/mL (≈ 4.14 µM); with Kl. pneumoniae Y-41, 3.13 µg/mL (≈ 8.32 µM); in the test on Pro. vulgaris GN76** (GN76, 20 h) it was 1.56 µg/mL (≈ 4.14 µM); against Ps. aeruginosa GN918** (GN918, 20 h), 3.13 µg/mL (≈ 8.32 µM). In addition, the MIC in the test on E. coli GN5482** was not above 0.05 µg/mL.

Take `CN1CCc2cc(-c3cc(=O)c(C(=O)O)cn3-c3ccc(O)cc3)ccc21`: the MIC stood at 1.56 µg/mL (≈ 4.3 µM) with Kl. pneumoniae Y-4*; 0.1 µg/mL (≈ 0.276 µM) in the test with St. aureus F-137*; 6.25 µg/mL (≈ 17.2 µM) in the test on Ps. aeruginosa GN3379*; 0.39 µg/mL (≈ 1.08 µM) in the test on E. coli TK-3* (setting [1]); 0.2 µg/mL (≈ 0.552 µM) in the test on Pro. vulgaris GN3027; 0.78 µg/mL (≈ 2.15 µM) in the test on Ent. cloacae IID977 (setting [2]). Moreover, the MIC in the test with St. aureus FDA209P is 0.2 µg/mL (≈ 0.552 µM); in the test with Pro. morganii T-216 (setting [3]), 0.78 µg/mL (≈ 2.15 µM); in the test on Ps. aeruginosa S-68 (setting [4]), 6.25 µg/mL (≈ 17.2 µM); in the test with E. coli TK-111 it was not above 0.05 µg/mL; in the test with Ps. aeruginosa IFO3445 it was 12.5 µg/mL (≈ 34.5 µM); with Pro. mirabilis T-111 (setting [5]), 3.13 µg/mL (≈ 8.64 µM). The MIC with E. coli NIHJ JC-2 is 0.2 µg/mL (≈ 0.552 µM); in the test on Aci. antitratus A-6, 0.39 µg/mL (≈ 1.08 µM); in the test with Kl. pneumoniae Y-50 it was 0.39 µg/mL (≈ 1.08 µM); in the test on Kl. pneumoniae Y-41, 1.56 µg/mL (≈ 4.3 µM); in the test with Pro. vulgaris GN76** (setting [6]), 0.39 µg/mL (≈ 1.08 µM); against Ps. aeruginosa GN918** (GN918, 20 h), 1.56 µg/mL (≈ 4.3 µM). For the same molecule, the MIC with E. coli GN5482** was not above 0.05 µg/mL.
